{
  "source": "patent US20200316087A1",
  "about": "“NOVEL COMBINATION THERAPY FOR ANXIETY DISORDERS, EPILEPSY, AND PAIN” (priority 2017, published 2020)",
  "test_system": "6 Hz-induced seizures",
  "experiment": "6 Hz (44 mA) seizure model",
  "type": "in vivo",
  "conditions": "mice; for Number protected/number tested: 2 hr post dosing",
  "excerpt": "This seizure model is utilized to screen for drugs that might […] by other screening approaches. For example, the highly used anticonvulsant leviteracetam was effective in this test but not in the pentylenetetrazole assay. Adult, male mice were subjected to 6 Hz stimulation at 44 mA as originally described by Barton et al. (Epilepsy Res. 2001; 47:217-27) and conducted per protocol of the NTH Anticonvulsant Screening Program (available online from the National Institute of Neurological Disorders and Stroke—6 Hz 44 mA Psychomotor Seizure Model, Mouse). Briefly, a mouse was dosed with KRM-II-81, p.o., and 2 hr later given 6 Hz stimulation for 3 sec delivered through corneal electrodes at 44 mA and observed for the presence or absence of seizure activity. A separate group of mice was dosed with higher doses of KRM-II-81 and observed for potential deficits in motor performance and overt signs of toxicity at 4 hr post dosing.",
  "data": [
    {"compound": "C#Cc1ccc2c(c1)C(c1ccccn1)=NCc1c(-c3cnco3)ncn1-2", "note": "[KRM-II-81, 5-(8-ethynyl-6-(pyridin-2-yl)-4H-benzo[f]imidazo[1,5-a][1,4]diazepin-3-yl)oxazole]", "values": [
      {"measurement": "Number protected/number tested", "setting": "dose 10, p.o.", "value": "0/8"},
      {"measurement": "Number protected/number tested", "setting": "dose 25, p.o.", "value": "3/8"},
      {"measurement": "Number protected/number tested", "setting": "dose 50, p.o.", "value": "7/8"},
      {"measurement": "6 Hz Potency (MED)", "setting": "p.o., doses 10-50 mg/kg", "value": 50, "unit": "mg/kg"}
    ]}
  ]
}
